Measured values as given in patent US20260234159A1, “SMALL MOLECULE TREATMENT OF FATTY LIVER DISEASE AND HCC” (SCANDIEDGE THERAPEUTICS AB, priority 2023, published 2026).
pIC50: −log10 of the molar value.

How the values were obtained:
HepG2 cells [1] = test: MTT cell viability / IC50 in growth media; type: cell-based, human
Method: The cytotoxic effects of the synthesized drugs on the HepG2 cells were tested by MTT (Thiazolyl Blue Tetrazolium Bromide) method. HepG2 cells were seeded 2×10^4 cells per well in 96-well plate in 200 μL growth media. […] After the incubation period, 5 mg/ml MTT (M2128, Sigma-Aldrich) solution in PBS (10 μL) was added to each well. After 1 hr, the MTT solution and all media were removed from the wells. 100 μl of DMSO was added and mixed to dissolve the formazan crystals. Cell viability was analysed by measuring the absorbance of the dissolved formazan in a microplate reader at a wavelength of 570 nm with microplate reader (Hidex Sense Beta Plus).
HepG2 cells were maintained and used with RPMI 1640 (R2405, Sigma-Aldrich) supplemented with 10% fetal bovine serum (F7524, Sigma-Aldrich), 1% P/S (P4333, Sigma-Aldrich). 20,000 cells per well of HepG2 cells were seeded into a 96-well plate and triplicated for MTT assay and LDH assay. Cell viability was measured by MTT assay (M6494, ThermoFisher) and cytotoxicity was measured by LDH assay kit (ab65393, abcam) by following manufacturer's instructions. Optical density (O.D) was numerated using a microplate reader (Hidex Sense Meta Plus).

HepG2 cells [2] = test: FACs analysis with PI staining (cell cycle); type: cell-based, human
Method: 400,000 HepG2 cells were seeded in a 6-well plated and treated with 10 μM of the compounds for 2 days. Cells were fixed with 70% ethanol and stained with 50 μg/ml PI. Prepared cells were analysed using BD FACS Canto II Flow Cytometry system at PE-A channel 10,000 cells per group. The data was histogram plotted with BD FACSDiva 9.0.

HepG2 cells [3] = test: Mitochondrial membrane potential assay (TMRE); type: cell-based, human; settings: 10 μM, one day
Method: HepG2 cells were seeded into a 6-well plate at 400,000 cells per well. After treatment with the compounds at desired concentration and time, TMRE (ab113852, abcam), Autophagy (ab139484, abcam), ROS (ab113851, abcam), and Lipid peroxidation (ab243377, abcam) assay were performed according to manufacturer's instructions. Fluorescence images were taken using ZOE™ Fluorescent Cell Imager (Biorad) and ROI of fluorescence intensity was measured and calculated by Image J. For microplate reader florescence assay, 40,000 of HepG2 cells were seeded into a 96-well plate and triplicated. GFP (Ex480 nm, Em530 nm) and RFP (Ex549 nm, Em574 nm) were measured using a microplate reader (Hidex Sense Meta Plus).

[4] = In vivo toxicological study in rats: plasma chemistry; set-up: species or system rats of the Wistar strain
Method: Forty-two male and forty-two female rats of the Wistar strain were allocated to the study. Three groups of three males and three females were given doses of 30, 100 and 300 mg/kg of target compounds (Table 8). The vehicle was 1.5 w/w % HPMC, 1.5 w/w % PS80 in 10 mM PBS, pH 7 and dose volume were 5 mL/kg. The animals were acclimatised at least 14 day prior to the study and exposed to a 12 hours light, 12 hours dark light cycle. The formulations were administered via oral gavage. Administration occurred once daily in the morning for seven consecutive days. Blood for scheduled haematology and plasma chemistry were taken at necropsy. For plasma chemistry, 0.6 ml blood (lithium heparin) per animal and for haematology, 0.5 ml blood (K2EDTA) per animal. The blood and plasma were analysed using Exigo analyzer and Vetscan equipment. Blood samples were kept in room temperature […] after collection and mixing. The blood samples were analysed as whole blood within 60 min of collection. The VetScan analyser was calibrated with calibration samples of known plasma levels of each parameter before start of analysis, occasionally during the analysis period of study samples and after completed analyses (Table 10).

[5] = female, 30 mg/kg oral daily 7 d
[6] = female, 100 mg/kg oral daily 7 d
[7] = female, 300 mg/kg oral daily 7 d

## COc1ccc(C(=O)Nc2sc3c(c2C#N)CCCCC3)cc1OC [PKL-A135, N-(3-cyano-5,6,7,8-tetrahydro-4H-cyclohepta[b]thiophen-2-yl)-3,4-dimethoxy-benzamide]
HepG2 cells [1]; Homo sapiens, 48 h, HepG2, treatment for 2 days, 30 μM to 30 nM
  pIC50: 4.92
HepG2 cells [1]; especially in cancerous media
  cell viability of HepG2 cells: significantly low cell viability
HepG2 cells [2]; PI FACs, 10 μM, 2 days
  Cell population G0/G1: 5.5
  Cell population G2/M: 79.9
  Cell population S: 2.0
HepG2 cells [2]; histogram plots
  cells in the G2/M phase: around 89%
HepG2 cells [3]
  mitochondrial membrane potential: significantly decreased
[4]; [5]
  ALB: 56 g/L
  ALP: 117 U/L
  ALT: 23 U/L
  AMY: 564 U/L
  BUN: 6.0 mmol/L
  CA: 2.91 mmol/L
  CRE: 31 µmol/L
  GLOB: 8 g/L
  GLU: 8.1 mmol/L
  K+: 4.6 mmol/L
  NA+: 141 mmol/L
  PHOS: 2.30 mmol/L
  TBIL: 5.3 µmol/L
  TP: 64 g/L
[4]; [6]
  ALB: 59 g/L
  ALP: 126 U/L
  ALT: 23 U/L
  AMY: 589 U/L
  BUN: 5.7 mmol/L
  CA: 2.96 mmol/L
  CRE: 44 µmol/L
  GLOB: 11 g/L
  GLU: 7.9 mmol/L
  K+: 4.4 mmol/L
  NA+: 140 mmol/L
  PHOS: 2.34 mmol/L
  TBIL: 5.0 µmol/L
  TP: 71 g/L
[4]; [7]
  ALB: 59 g/L
  ALP: 156 U/L
  ALT: 20 U/L
  AMY: 590 U/L
  BUN: 5.3 mmol/L
  CA: 3.00 mmol/L
  CRE: 41 µmol/L
  GLOB: 9 g/L
  GLU: 7.8 mmol/L
  K+: 4.6 mmol/L
  NA+: 142 mmol/L
  PHOS: 2.91 mmol/L
  TBIL: 5.3 µmol/L
  TP: 67 g/L
[4]; male, 30 mg/kg oral daily 7 d
  ALB: 50 g/L
  ALP: 234 U/L
  ALT: 33 U/L
  AMY: 757 U/L
  BUN: 5.6 mmol/L
  CA: 3.01 mmol/L
  CRE: 39 µmol/L
  GLOB: 15 g/L
  GLU: 8.5 mmol/L
  K+: 4.80 mmol/L
  NA+: 140 mmol/L
  PHOS: 2.20 mmol/L
  TBIL: 5.0 µmol/L
  TP: 65 g/L
[4]; male, 100 mg/kg oral daily 7 d
  ALB: 50 g/L
  ALP: 259 U/L
  ALT: 25 U/L
  AMY: 770 U/L
  BUN: 5.6 mmol/L
  CA: 2.95 mmol/L
  CRE: 36 µmol/L
  GLOB: 12 g/L
  GLU: 8.9 mmol/L
  K+: 4.83 mmol/L
  NA+: 138 mmol/L
  PHOS: 2.51 mmol/L
  TBIL: 4.7 µmol/L
  TP: 61 g/L
[4]; male, 300 mg/kg oral daily 7 d
  ALB: 50 g/L
  ALP: 275 U/L
  ALT: 28 U/L
  AMY: 835 U/L
  BUN: 5.7 mmol/L
  CA: 2.98 mmol/L
  CRE: 38 µmol/L
  GLOB: 13 g/L
  GLU: 9.0 mmol/L
  K+: 5.2 mmol/L
  NA+: 140 mmol/L
  PHOS: 2.64 mmol/L
  TBIL: 5.0 µmol/L
  TP: 63 g/L
